According to ChEMBL document CHEMBL3992492, “Sulfoximines from a Medicinal Chemist's Perspective: Physicochemical and in vitro Parameters Relevant for Drug Discovery” (Eur J Med Chem, 2017):
Values after ≈ are worked out from the molar mass of the structure shown.

Assays:
in vitro [1] = conditions: human, liver microsomes
[2] = Drug degradation in pH <1 HCl after 7 days by HPLC method
physchem [3] = conditions: aqueous
in vitro [4] = conditions: PAMPA, pH 7.4
Description: Apparent permeability of the compound at pH 7.4 by PAMPA

physchem [5] = conditions: octanol/water, pH 10
in vitro [6] = conditions: human, liver microsomes; remark: listed apart in the source
Description: Half life in human liver microsomes at 1 uM in presence of NADPH by LC-MS/MS method

physchem [7] = conditions: acetonitrile/water mixture
Description: Solubility of the compound in acetonitrile/water mixture at 10 mM measured after 24 by HPLC-UV method

[8] = Drug degradation in pH >10 NH3 after 7 days by HPLC method
[9] = Apparent partition coefficient, log P of the compound in n-octanol/aqueous mixture by potentiometric titration method; format: physicochemical
[10] = Dissociation constant, pKb of the compound in aqueous/organic mixture at pH 2 to 12 by potentiometric titration method; format: physicochemical; conditions: buffer

Row | Structure (SMILES) | hepatic extraction ratio at 1 µM (in vitro [1]) | Drug degradation [2] | solubility thermodynamic (physchem [3]) | Papp (in vitro [4]) | logP (physchem [5]) | half-life at 1 µM (in vitro [6]) | solubility at 10000 µM (physchem [7]) | Drug degradation [8] | logP [9] | pKb [10]
1 | CN=S(C)(=O)c1ccc(C(F)(F)F)cc1 (configuration not stated) | < 0.23 | < 10% | 2400 µg/mL (≈ 10100 µM) | 11 ×10⁻⁶ cm/s | 0.1 | > 2.17 h | > 54 µg/mL | < 10% |  | 
2 | Cn1cc(N=S2(=O)CCCCC2)cn1 | < 0.23 |  |  | 3.2 ×10⁻⁶ cm/s |  | > 2.17 h | 39 µg/mL (≈ 183 µM) |  | -3.9 | 
3 | CC(C)(C)OC(=O)c1ccc(C(F)(F)F)cc1 |  |  | 20 µg/mL (≈ 81.2 µM) |  | 4.8 |  | 7 µg/mL (≈ 28.4 µM) |  |  | 
4 | C[S+]([O-])Cc1ccc(C(F)(F)F)cc1 (configuration not stated) | 0.25 |  | 4300 µg/mL (≈ 19300 µM) | 6.3 ×10⁻⁶ cm/s | -0.5 | 1.83 h | > 51 µg/mL |  |  | 
5 | CNS(C)(=O)=Nc1ccc(C(F)(F)F)cc1 (configuration not stated) | < 0.23 |  | 800 µg/mL (≈ 3170 µM) | 5 ×10⁻⁶ cm/s | 1.6 | > 2.17 h | > 54 µg/mL |  |  | 
6 | CN=S(=O)(c1ccc(C(F)(F)F)cc1)N(C)C (configuration not stated) | < 0.23 | < 10% | 1200 µg/mL (≈ 4510 µM) | 9.5 ×10⁻⁶ cm/s | 1.5 | > 2.17 h |  | 10% |  | 
7 | O=S1(=Nc2ccc(C(F)(F)F)cc2)CCC1 | < 0.23 |  |  | 9.6 ×10⁻⁶ cm/s |  | > 2.17 h | 48 µg/mL (≈ 193 µM) |  | 2.5 | 
8 | O=S1(=Nc2cc(C(F)(F)F)cc(C(F)(F)F)c2)CCCCC1 | 0.87 |  |  | 3.3 ×10⁻⁶ cm/s |  | 0.1 h | < 1 µg/mL |  | 4 | 
9 | CCS(C)(=O)=Nc1ccc(C(F)(F)F)cc1 (configuration not stated) | < 0.23 |  |  | 7.7 ×10⁻⁶ cm/s |  | > 2.17 h | > 51 µg/mL |  | 2 | 
10 | CS(=O)(=Nc1ccc(C(F)(F)F)cc1)C1CCOCC1 (configuration not stated) | < 0.23 |  |  | 9.6 ×10⁻⁶ cm/s |  | > 2.17 h | 46 µg/mL (≈ 150 µM) |  | 2.5 | 
11 | CS(=O)(=O)c1ccc(C(F)(F)F)cc1 |  |  | 300 µg/mL (≈ 1340 µM) |  | 1.5 |  | > 47 µg/mL |  |  | 
12 | O=S1(=Nc2ccc(C(F)(F)F)cc2)CCOCC1 | < 0.23 |  | 300 µg/mL (≈ 1070 µM) | 8 ×10⁻⁶ cm/s |  | > 2.17 h | > 57 µg/mL |  | 2.7 | 
13 | CS(C)(=O)=NC(=O)Nc1ccc(C(F)(F)F)cc1 | < 0.23 | < 10% | 40 µg/mL (≈ 143 µM) | 4.3 ×10⁻⁶ cm/s | 1.6 | > 2.17 h | 44 µg/mL (≈ 157 µM) | 14% |  | 
14 | CN(C)S(C)(=O)=Nc1ccc(C(F)(F)F)cc1 (configuration not stated) | 0.48 |  | 70 µg/mL (≈ 263 µM) | 7.6 ×10⁻⁶ cm/s | 2.4 | 0.7 h | 41 µg/mL (≈ 154 µM) |  |  | 
15 | O=S1(=Nc2cccnc2)CCCCC1 | 0.82 |  |  | 5.8 ×10⁻⁶ cm/s |  | 0.133 h | > 75 µg/mL |  | -2.7 | 4.8
16 | CN(c1ccc(C(F)(F)F)cc1)S(C)(=O)=O |  |  | 200 µg/mL (≈ 790 µM) |  | 2.5 |  | 46 µg/mL (≈ 182 µM) |  |  | 
17 | C[S@](=O)(=Nc1ccc(C(F)(F)F)cc1)c1ccccc1 | < 0.23 |  |  | 2.5 ×10⁻⁶ cm/s |  | > 2.17 h | 20 µg/mL (≈ 66.8 µM) |  | 3.7 | 
18 | CS(=O)(=Nc1ccc(C(F)(F)F)cc1)c1ccncc1 (configuration not stated) | 0.41 |  |  | 6.2 ×10⁻⁶ cm/s |  | 0.933 h | 44 µg/mL (≈ 147 µM) |  | 2.6 | 
19 | CC(C)(C)OC(=O)Nc1ccc(C(F)(F)F)cc1 |  |  | < 1 µg/mL | 0.8 ×10⁻⁶ cm/s | 4.4 |  | < 1 µg/mL |  |  | 
20 | CC(C)(C)S(C)(=O)=Nc1ccc(C(F)(F)F)cc1 (configuration not stated) |  |  |  |  |  |  | 22 µg/mL (≈ 78.8 µM) |  | 3.1 | 
21 | N#Cc1ccc(N=S2(=O)CCCCC2)cc1 | < 0.23 |  |  | 7.9 ×10⁻⁶ cm/s |  | > 2.17 h | 45 µg/mL (≈ 192 µM) |  | 1.1 | 
22 | CNC(=O)c1ccc(C(F)(F)F)cc1 | < 0.23 |  | 200 µg/mL (≈ 984 µM) | 5.7 ×10⁻⁶ cm/s | 0.5 | > 2.17 h |  |  |  | 
23 | O=S1(=Nc2ccccc2Cl)CCCCC1 | 0.58 |  | 500 µg/mL (≈ 2050 µM) | 12 ×10⁻⁶ cm/s |  | 0.467 h | > 50 µg/mL |  | 2 | 
24 | CS(C)(=N)=NC(=O)Nc1ccc(C(F)(F)F)cc1 |  | < 10% | 500 µg/mL (≈ 1790 µM) | 3.3 ×10⁻⁶ cm/s | 0.4 |  | > 68 µg/mL | < 10% |  | 3.3

Row | Structure (SMILES) | hepatic extraction ratio at 1 µM (in vitro [1]) | Drug degradation [2] | solubility thermodynamic (physchem [3]) | Papp (in vitro [4]) | logP (physchem [5]) | half-life at 1 µM (in vitro [6]) | solubility at 10000 µM (physchem [7]) | Drug degradation [8] | logP [9] | pKb [10]
25 | O=S1(=Nc2ccc(C(F)(F)F)cc2)CCCCC1 | 0.46 | < 10% | 70 µg/mL (≈ 252 µM) | 7.7 ×10⁻⁶ cm/s | 2.8 | 0.767 h | 51 µg/mL (≈ 184 µM) | < 10% | 2.8 | 
26 | C[S@@](=O)(=Nc1ccc(C(F)(F)F)cc1)c1ccccc1 | < 0.23 |  |  | 3.5 ×10⁻⁶ cm/s |  | > 2.17 h | 17 µg/mL (≈ 56.8 µM) |  | 3.7 | 
27 | O=S1(=Nc2ccc(F)cc2)CCCCC1 | 0.25 |  | > 1000 µg/mL | 9.5 ×10⁻⁶ cm/s |  | 2 h | > 46 µg/mL |  | 0.7 | 
28 | CN=S(=O)(NC)c1ccc(C(F)(F)F)cc1 (configuration not stated) | < 0.23 | < 10% | 1200 µg/mL (≈ 4760 µM) | 9.8 ×10⁻⁶ cm/s | 0.4 | > 2.17 h |  | < 10% |  | 
29 | O=S1(=Nc2ccccc2)CCCCC1 | < 0.23 |  |  | 9.5 ×10⁻⁶ cm/s |  | > 2.17 h | 37 µg/mL (≈ 177 µM) |  | -0.1 | 
30 | CS(=O)(=Nc1ccc(C(F)(F)F)cc1)C1CC1 (configuration not stated) | < 0.23 |  |  | 7.8 ×10⁻⁶ cm/s |  | > 2.17 h | 40 µg/mL (≈ 152 µM) |  | 2.3 | 
31 | O=S1(=Nc2ccc(C(F)(F)F)cc2)CCCC1 | 0.26 |  | 6000 µg/mL (≈ 22800 µM) | 8.7 ×10⁻⁶ cm/s |  | 1.83 h | 50 µg/mL (≈ 190 µM) |  | 2.4 | 
32 | CS(C)(=O)=Nc1ccc(C(F)(F)F)cc1 | < 0.23 | 13% | 900 µg/mL (≈ 3790 µM) | 8.2 ×10⁻⁶ cm/s | 1.4 | > 2.17 h | > 50 µg/mL | 20% | 1.4 | 
33 | CS(=O)(=Nc1ccc(C(F)(F)F)cc1)c1cccnc1 (configuration not stated) | < 0.23 |  |  | 8.4 ×10⁻⁶ cm/s |  | > 2.17 h | 47 µg/mL (≈ 157 µM) |  | 2.5 | 
34 | CC(C)(C)NC(=O)c1ccc(C(F)(F)F)cc1 | < 0.23 |  | 10 µg/mL (≈ 40.8 µM) | 7.1 ×10⁻⁶ cm/s | 2.6 | > 2.17 h | 14 µg/mL (≈ 57.1 µM) |  |  | 
35 | NC(=O)c1ccc(C(F)(F)F)cc1 |  |  | 300 µg/mL (≈ 1590 µM) |  | 0.3 |  | > 44 µg/mL |  |  | 
36 | CC(=O)N(C)c1ccc(C(F)(F)F)cc1 |  |  | 1300 µg/mL (≈ 5990 µM) | 9.7 ×10⁻⁶ cm/s | 0.8 |  | > 52 µg/mL |  |  | 
37 | C[S+]([O-])c1ccc(C(F)(F)F)cc1 (configuration not stated) |  |  | 11100 µg/mL (≈ 53300 µM) |  | -0.3 |  | > 46 µg/mL |  |  | 
38 | CS(=O)(=O)Cc1ccc(C(F)(F)F)cc1 |  |  | 400 µg/mL (≈ 1680 µM) |  | 1.3 |  |  |  |  | 
39 | COc1ccc(N=S2(=O)CCCCC2)cc1 | < 0.23 |  | 900 µg/mL (≈ 3760 µM) | 9.1 ×10⁻⁶ cm/s |  | > 2.17 h | > 51 µg/mL |  | -0.1 | 
40 | CN(C)S(=O)(=O)c1ccc(C(F)(F)F)cc1 |  |  | 90 µg/mL (≈ 355 µM) |  | 2.7 |  | 47 µg/mL (≈ 186 µM) |  |  | 
41 | CS(C)(=O)=NC(=O)c1ccc(C(F)(F)F)cc1 | 0.39 | > 90% | 300 µg/mL (≈ 1130 µM) | 11 ×10⁻⁶ cm/s | 1.8 | 1.03 h | > 53 µg/mL | < 10% |  | 
42 | CS(=O)(=O)Oc1ccc(C(F)(F)F)cc1 |  |  | 300 µg/mL (≈ 1250 µM) |  | 4.3 |  |  |  |  | 
43 | CC(C)(C)NC(=O)Nc1ccc(C(F)(F)F)cc1 | < 0.23 |  | 20 µg/mL (≈ 76.8 µM) | 5.1 ×10⁻⁶ cm/s | 3.4 | > 2.17 h | < 1 µg/mL |  |  | 
44 | O=S1(=Nc2ccncc2)CCCCC1 | < 0.23 |  |  | 5.7 ×10⁻⁶ cm/s |  | > 2.17 h | 42 µg/mL (≈ 200 µM) |  | -2.6 | 7.2
45 | CC(=O)Nc1ccc(C(F)(F)F)cc1 | 0.39 |  | 100 µg/mL (≈ 492 µM) | 6 ×10⁻⁶ cm/s | 1.8 | 1 h | 10 µg/mL (≈ 49.2 µM) |  |  | 
46 | O=S1(=Nc2ccc(C(F)(F)F)cc2)CCNCC1 | 0.25 |  | 2300 µg/mL (≈ 8260 µM) | 8.3 ×10⁻⁶ cm/s |  | 1.83 h | > 57 µg/mL |  | 0.9 | 5.2
47 | CS(C)(=N)=NC(=O)c1ccc(C(F)(F)F)cc1 | < 0.23 | > 90% | 8100 µg/mL (≈ 30700 µM) | 9.2 ×10⁻⁶ cm/s | 0.4 | > 2.17 h |  | 34% |  | 
